This is an account of results in publication PMC5590075, “Synthesis, Antimicrobial, and Antioxidant Activities of Chalcogen-Containing Nitrone Derivatives from (R)-citronellal” (Medicines, 2017).

In brackets after ≈: the same amount, converted by molar mass. Read-outs that look alike come from different tables or passages of the source.

Assay [1] relates to Bacillus cereus ATCC 11778. The assay can be described thus: agar disk diffusion test. It is filed as cell-based. The following applies: B. cereus, 1.0 × 10^8 CFU.mL^−1; 20 μL compound diluted in DMSO (1:1) per 6 mm disc; streptomycin 10 µg; mean of two repetitions. From the text:
(§1) To evaluate the antimicrobial potential of the synthesized compounds, the following reference strains of bacteria, that are economically important in foods, were employed: Gram-positive Listeria monocytogenes ATCC 7644, Staphylococcus aureus ATCC 25923, and Bacillus cereus ATCC 11778; Gram-negative Salmonella Typhimurium ATCC 14028, Escherichia coli O157: H7 NCTC 12900 and the clinically important Pseudomonas aeruginosa ATCC 15442.
(§2) The antimicrobial activity assay using the disk diffusion test was realized using the methodology that is recommended by the Clinical Laboratory Standards Institute (CLSI). The determination of the minimum inhibitory concentration (MIC) and minimum bactericidal concentration (MBC) was performed using the macro dilution tube method, in accordance with Rota et al., with modifications. Details of these assays are provided in the Supplemental Material. […]
2.1. Antimicrobial activity assay using the disk diffusion test
The disk diffusion test followed the methodology recommended by the Clinical Laboratory Standards Institute CLSI [4]. The inoculum was standardized by standard McFarland to the concentration of 10^8 CFU.mL−1 and spread on the surface of a Petri dish containing Mueller‐Hinton (MH) agar. Then, the paper disc (6 mm) was put on a plate impregnated with 20 μL of the testing compound previously diluted in DMSO (1:1) and incubated at 37 °C for 24 hours. Zone of inhibition ≥20 mm were considered as strong inhibition, <20–12 mm as moderate inhibition, and <12 mm no inhibition. A positive control with streptomycin antibiotic (10 μg) and a negative one, with paper discs impregnated with distilled water, were used […]
(§3) 2.4. Radical Scavenging Activity […]
(§4) The ABTS radical scavenging activity was determined according to the method described by Erel. Different concentrations of compounds 5a–d and 10 (10–500 μ M) were mixed with the ABTS+ solution, and the decrease in the absorbance at 734 nm was recorded.
(A growth-free zone around the sample is the usual read-out of agar diffusion tests.)

Assay [2] has as its system Bacillus cereus ATCC 11778. Put plainly: MIC and MBC, macro dilution tube method. It is filed as cell-based.
Description: as §1, §2
(§5) 2.2. Determination of the minimum inhibitory concentration (MIC) and minimum bactericidal concentration
(§6) The MIC was determined using the macro dilution tube method, in accordance with Rota et al.
(§7) [5], with modifications. The tested concentrations were 20, 18, 15, 12, 10, 7 and 5 μL.mL‐1 of each compound. In a tube with 1 mL of MH broth, was inoculated 105 UFC.mL‐1, the compound in a predetermined concentration and, to facilitate the solubility, 2 drops of TWEEN 80. The mixture was incubated at 37 °C for 24 h under stirring (150 rpm). As the positive control, MH broth and inoculum concentration in 105 UFC.mL‐1 and as the negative control MH, the inoculum concentration in 105 UFC∙mL‐1 and streptomycin (10 μg) were used. MIC was defined as the lowest concentration of […]
(§8) After 24 h, tubes with no visible growth were seeded in a […] TSA‐YE tube and incubated at 37 °C for 24 h. The MBC is the lowest concentration of compound where 99.9% of the initially inoculated cells were killed. […]
as §3, §4

The subject of assay [3] is Escherichia coli O157: H7 NCTC 12900. The assay can be described thus: MIC and MBC, macro dilution tube method. Particulars: for MIC: E. coli O157:H7, 10^5 CFU.mL^−1, 24 h. It is filed as cell-based.
Description: as §1, §2, §5, §6, §7, §8, §3, §4

Assay [4] has as its system Staphylococcus aureus ATCC 25923. The assay can be described thus: MIC and MBC, macro dilution tube method. It is filed as cell-based. The following applies: S. mureus (so in the source); for MBC: 10^5 CFU.mL^−1; for MIC: 10^5 CFU.mL^−1, 24 h.
Description: as §1, §2, §5, §6, §7, §8, §3, §4

A short description of assay [5]: DPPH radical scavenging. The following applies: for DPPH radical scavenging, percentage of inhibition in relation to control: mean ± SD (n = 3); for DPPH radical scavenging activity (in words): 10–500 μM tested. The method, then:
The antioxidant properties of the synthesized compounds (5a–d and 10) were evaluated by three different methods in vitro: DPPH (1,1-diphenyl-2-picryl-hydrazyl) and ABTS^+ (2,2′-azino-bis(3-ethylbenzthiazoline-6-sulfonic acid) radical scavenging ability and ferric ion reducing antioxidant power (FRAP). All drugs were dissolved in dimethyl sulfoxide (DMSO) at concentrations of 1–500 µM. These assays were performed according to the literature and details of these experiments are described elsewhere (see the ‘Results and Discussion’ section for the references). […]
2.3. Antioxidant activity assays
The antioxidant properties of the synthesized compounds were evaluated by three different methods in vitro: DPPH and ABTS+ radical scavenging activity and ferric ion reducing antioxidant power (FRAP). All drugs were dissolved in dimethyl sulfoxide (DMSO). The experimental results were given as the means ± standard deviation (SD) to show the variations among the groups. The statistical analysis was performed using one‐way analysis of variance (ANOVA) followed by Newman‐Keuls multiple comparison test when appropriate. The differences were considered statistically significant at a probability of less than 5% (p < 0.05). All tests were performed at least three times in duplicate. The IC50 values (the concentration of sample required to scavenge 50% of the free radicals) were calculated from the graph of the scavenging effect percentage versus the […]
2.4. Radical Scavenging Activity
To determine if compounds 5a–d and 10 present in vitro antioxidant activity against free radicals, DPPH and ABTS+ scavenging capability were evaluated at different concentrations.
The DPPH scavenging activity of compounds 5a–d and 10 (10–500 μM) was determined in accordance with the method of Sharma and Bhat and the decrease in the absorbance at 517 nm […]
The ABTS radical scavenging activity was determined according to the method described by Erel. Different concentrations of compounds 5a–d and 10 (10–500 μ M) were mixed with the ABTS+ solution, and the decrease in the absorbance at 734 nm was recorded. […]
(§9) values, as calculated by the following equation:
I% = [(Ac−As/Ac) × 100] (1) […]
On the technique in general: Loss of DPPH colour is used to gauge radical scavenging.

The nature of assay [6]: Ferric ion reducing antioxidant power (FRAP). The following applies: mean ± SD (n = 3). The method, then:
The antioxidant properties of the synthesized compounds (5a–d and 10) were evaluated by three different methods in vitro: DPPH (1,1-diphenyl-2-picryl-hydrazyl) and ABTS^+ (2,2′-azino-bis(3-ethylbenzthiazoline-6-sulfonic acid) radical scavenging ability and ferric ion reducing antioxidant power (FRAP). All drugs were dissolved in dimethyl sulfoxide (DMSO) at concentrations of 1–500 µM. These assays were performed according to the literature and details of these experiments are described elsewhere (see the ‘Results and Discussion’ section for the references).
as §9
I% = [(Ac−As/Ac) × 100] (1)
3. Ferric ion reducing antioxidant power (FRAP)
reducing capacity of compounds 5a–d and 10.
[8] with slight modifications. […]

Assay [7] has as its system Listeria monocytogenes ATCC 7644. The assay can be described thus: MIC and MBC, macro dilution tube method. It is filed as cell-based. The following applies: L. monocytogenes; for MIC: 10^5 CFU.mL^−1, 24 h; for MBC: 10^5 CFU.mL^−1.
Description: as §1, §2, §5, §6, §7, §8, §3, §4

The mark [8] stands for this setting: B. mereus (so in the source), 10^5 CFU.mL^−1.
[9] abbreviates: B. mereus (so in the source), 10^5 CFU.mL^−1, 24 h.
Where [10] appears, read: E. coli O157:H7, 10^5 CFU.mL^−1.

As to `CC(C)=CCCC(C)C(/C=[N+](\C)[O-])Sc1ccccc1` (stereo not drawn) [5a, (E)-N,3,7-Trimethyl-2-(phenylthio)oct-6-en-1-imine oxide], in assay [1], the “Inhibition Zone” value is given as 21.5 mm. In addition, the MBC is 0.59 mM.mL^−1 in assay [2] (setting [8]); 590 µM (≈ 172 µg/mL) in assay [2] (Bacillus cereus, ATCC11778); greater than 0.65 mM.mL^−1 in assay [3] (setting [10]); greater than 0.65 mM.mL^−1 in assay [4]. Also, the MIC in assay [2] (setting [9]) was 0.48 mM.mL^−1; in assay [2] (Bacillus cereus, ATCC11778, read-out: minimal inhibitory concentration (MIC)), 480 µM (≈ 140 µg/mL); in assay [3] it was greater than 0.65 mM.mL^−1; in assay [4], greater than 0.65 mM.mL^−1. Further, the “DPPH radical scavenging, percentage of inhibition in relation to control” value came out at 2.43 ± 1.08% in assay [5] (100 μM) and 20.31 ± 1.26 % in assay [5] (500 μM). The “DPPH radical scavenging activity (in words)” value in assay [5] is on record as “demonstrated DPPH radical scavenging activity”. The “Ferric ion reducing antioxidant power (FRAP), absorbance at 593 nm” value (from here on “Ferric ion reducing antioxidant power”) in assay [6] (5 μM) is given as 0.165 ± 0.007; in assay [6] (10 μM), 0.207 ± 0.019; in assay [6] (50 μM), 0.572 ± 0.023; in assay [6] (100 μM), 1.039 ± 0.067.

With `CC(C)=CCCC(C)C/C=[N+](\C)[O-]` (stereo not drawn) [5d, (E)-N,3,7-trimethyloct-6-en-1-imine oxide], the “Inhibition Zone” value in assay [1] was 29 mm. Moreover, the figures for the MBC in assay [2] (setting [8]) and in assay [3] (setting [10]) were greater than 1.26 mM.mL^−1 and 1.26 mM.mL^−1, respectively. Moreover, the MIC in assay [2] (setting [9]) is greater than 1.26 mM.mL^−1; in assay [3], 1.13 mM.mL^−1; in assay [7] it was 1.26 mM.mL^−1; in assay [4], 1.26 mM.mL^−1. For the same compound, the “DPPH radical scavenging activity (in words)” value in assay [5] is “did not present effect”. Moreover, the “Ferric ion reducing antioxidant power” value in assay [6] (1 μM) came out at 0.166 ± 0.008; in assay [6] (5 μM), 0.280 ± 0.022; in assay [6] (10 μM), 0.412 ± 0.055; in assay [6] (50 μM), 1.198 ± 0.024.

Turning to `CC(C)=CCCC(C)(C/C=[N+](\C)[O-])Sc1ccccc1` (stereo not drawn) [5c, (E)-N,3,7-trimethyl-3-(phenylthio)oct-6-en-1-imine oxide], the “Inhibition Zone” value in assay [1] was determined as 24.5 mm. Moreover, the MBC in assay [2] (setting [8]) was 0.69 mM.mL^−1; in assay [3] (setting [10]) it was 0.52 mM.mL^−1; in assay [3] (Escherichia coli, NCTC12900, read-out: minimal bactericidal concentration (MBC)), 520 µM (≈ 152 µg/mL); in assay [7], greater than 0.69 mM.mL^−1; in assay [4], 0.69 mM.mL^−1. Further, the MIC came out at 0.69 mM.mL^−1 in assay [2] (setting [9]), 0.52 mM.mL^−1 in assay [3] and 0.61 mM.mL^−1 in assay [4]. For the same compound, the “DPPH radical scavenging, percentage of inhibition in relation to control” value in assay [5] (100 μM) was determined as 2.43 ± 0.61%; in assay [5] (500 μM), 29.34 ± 1.00 %. Further, the “DPPH radical scavenging activity (in words)” value in assay [5] was “demonstrated DPPH radical scavenging activity”. Moreover, the figures for the “Ferric ion reducing antioxidant power” value in assay [6] (10 μM), in assay [6] (50 μM) and in assay [6] (100 μM) were 0.153 ± 0.047, 0.543 ± 0.047 and 1.121 ± 0.160, respectively.

Consider `CC(C)=CCC[C@@H](C)C(/C=N/O)[Se]c1ccccc1` (stereo partly drawn) [compound 10, (3R,E)-3,7-dimethyl-2-(phenylselanyl)oct-6-enal oxime], for which the “Inhibition Zone” value in assay [1] was 19 mm. For the same compound, the MBC in assay [2] (setting [8]), in assay [3] (setting [10]), in assay [7] and in assay [4] was greater than 0.70 mM.mL^−1 in each case. The MIC in assay [2] (setting [9]), in assay [3], in assay [7] and in assay [4] was greater than 0.70 mM.mL^−1 throughout. In addition, the “DPPH radical scavenging activity (in words)” value in assay [5] was “did not present effect”. The “Ferric ion reducing antioxidant power” value in assay [6] (10 μM) came to 0.084 ± 0.010; in assay [6] (50 μM), 0.180 ± 0.008; in assay [6] (100 μM), 0.257 ± 0.007; in assay [6] (500 μM), 1.291 ± 0.045.
